Assay results published in patent US20250059195A1, “TRIAZOLONE DERIVATIVE SALT AS NEUTROPHIL ELASTASE INHIBITOR” (CHIESI FARMACEUTICI S.P.A., priority 2021, published 2025).
Read-outs that look alike come from different tables or passages of the source. Values belong to the compound of their own block, whether it stands above or below them.

Columns and labels:
[1] = Solubility in water of different salts; assay type: physicochemical; details: water at RT
Experimental: The complete dissolution of the material was visually observed. […] From this experiment the xinafoate salt has a solubility lower than 0.05 mg/ml.

[2] = target: T1, human neutrophil elastase (HNE) (Homo sapiens, UniProt P08246); experiment: HNE-induced lung injury assay (BAL fluid haemoglobin content); assay type: in vivo, rat; details: for % Inhibition at 300 μg/Kg (inhibition of HNE-induced haemoglobin content in BALF) / % Inhibition at 600 μg/Kg (inhibition of HNE-induced haemoglobin content in BALF): male Sprague Dawley rats, dry powder nose-only inhalation 3 hours prior to HNE i.t. 100 U/rat, vs HNE-treated vehicle control; for % Inhibition at 300 μg/Kg (inhibition of HNE-induced haemoglobin content in BALF): 300 μg/Kg (0.3 mg/kg); for % Inhibition at 600 μg/Kg (inhibition of HNE-induced haemoglobin content in BALF): 600 μg/Kg (0.6 mg/kg); for inhibition of BAL fluid haemoglobin content, dose dependence: inhalation as dry powder formulation at 0.03, 0.3 and 0.6 mg/kg
T1 sequence (P08246 30-267): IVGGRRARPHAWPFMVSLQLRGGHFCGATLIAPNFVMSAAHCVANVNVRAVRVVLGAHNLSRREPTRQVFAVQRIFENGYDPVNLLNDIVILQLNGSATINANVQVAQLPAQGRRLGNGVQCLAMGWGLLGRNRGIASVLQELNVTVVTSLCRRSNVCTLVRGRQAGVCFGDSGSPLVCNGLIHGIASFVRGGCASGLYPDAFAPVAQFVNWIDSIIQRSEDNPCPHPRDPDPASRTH
Experimental: Then, one hour after the PBS or HNE administration animals were sacrificed and bronchoalveolar lavage (BAL) was performed in order to assess the HNE-induced lung injury measured as haemoglobin concentration.
BAL fluid samples were centrifuged at 800 g for 15 min at 4° C. The supernatant was collected and the pellet was re-suspended in 3 mL of distilled water. A standard curve with known volumes of lysated blood cells was made from a stem solution of lysated blood cells. 150 μL of standards and samples were transferred in duplicate to a 96-well plate and the OD measured at 412 nm.
Percentage of compound efficacy (assessed as inhibition of HNE-induced haemoglobin content in BALF) was calculated following this formula: 100−[(mean of haemoglobin concentration of test compound treated rats exposed to HNE)−(mean of haemoglobin concentration of vehicle treated rats exposed to PBS)]/[(mean of haemoglobin concentration of vehicle treated rats exposed to HNE)−(mean of haemoglobin concentration of vehicle treated rats exposed to PBS)]×100.

[3] = rat, in vivo
[4] = Head-out plethysmography (HOP) assay, lung function parameters; details: rats, dry powder snout-only inhalation
[5] = male, Wistar, 0.6 mg/kg, 60 min

solubility ([1]; thermodynamic from solid, read-out: Solubility (mg/ml) in water): < 0.05 mg/mL | Solubility (mg/ml) in water [1]: <0.05 mg/mL
Structure (SMILES): COC(=O)C1=C(C)N(c2cccc(C(F)(F)F)c2)c2n[nH]c(=O)n2[C@@H]1c1ccc(C#N)cc1CC[N+](C)(C)C [Xinafoate, (2-{5-Cyano-2-[(R)-6-methoxycarbonyl-7-methyl-3-oxo-8-(3-trifluoromethyl-phenyl)-2,3,5,8-tetrahydro-[1,2,4]triazolo[4,3-a]pyrimidin-5-yl]-phenyl}-ethyl)-trimethyl-ammonium xinafoate]
% Inhibition at 300 μg/Kg (inhibition of HNE-induced haemoglobin content in BALF) [2]: 35% | % Inhibition at 600 μg/Kg (inhibition of HNE-induced haemoglobin content in BALF) [2]: 80% | efficacy in inhibiting HNE in vivo, comparison of the salts ([2]; rats, dry powder inhalation): superior efficacy than the methanesulfonate salt | inhibition of BAL fluid haemoglobin content, dose dependence ([2]; rats): dose-dependent inhibition | % of Reduction of tidal volume at the highest tested dose [3]: No variation of any lung function parameters

increase of PenH compared to vehicle group [3, 5]: about 8 fold | increase of respiratory rate, peak effect vs vehicle (lactose) [3, 5]: 32% | reduction of tidal volume, peak effect vs vehicle [3, 5]: 35% | increase of PenH compared to vehicle group ([3]; male, Wistar, 6 mg/kg, 60 min): ~16 fold | increase of respiratory rate, peak effect vs vehicle (lactose) ([3]; male, Wistar, 6 mg/kg, 60 min): 54% | reduction of tidal volume, peak effect vs vehicle ([3]; male, Wistar, 6 mg/kg, 60 min): 39% | % of Reduction of tidal volume at the highest tested dose ([3]; male, Wistar, 60 min): 35-39%
Structure (SMILES): COC(=O)C1=C(C)N(c2cccc(C(F)(F)F)c2)c2n[nH]c(=O)n2[C@@H]1c1ccc(C#N)cc1CC[N+](C)(C)C.CS(=O)(=O)[O-] [Methanesulfonate, (2-{5-Cyano-2-[(R)-6-methoxycarbonyl-7-methyl-3-oxo-8-(3-trifluoromethyl-phenyl)-2,3,5,8-tetrahydro-[1,2,4]triazolo[4,3-a]pyrimidin-5-yl]-phenyl}-ethyl)-trimethyl-ammonium methanesulfonate]
% Inhibition at 300 μg/Kg (inhibition of HNE-induced haemoglobin content in BALF) [2]: 20% | % Inhibition at 600 μg/Kg (inhibition of HNE-induced haemoglobin content in BALF) [2]: 25% | inhibition of BAL fluid haemoglobin content, dose dependence ([2]; rats): dose-dependent inhibition

increase in PenH area ([3]; male, Wistar, 7 mg/kg, 60 min): about 9 fold | increase in respiratory rate, maximum effect vs vehicle ([3]; male, Wistar, 7 mg/kg, 60 min): 51% | reduced tidal volume, maximum decrease vs vehicle control ([3]; male, Wistar, 7 mg/kg, 60 min): 50% | % of Reduction of tidal volume at the highest tested dose ([3]; male, Wistar, 60 min): 50%
Structure (SMILES): CC(=O)[O-].COC(=O)C1=C(C)N(c2cccc(C(F)(F)F)c2)c2n[nH]c(=O)n2[C@@H]1c1ccc(C#N)cc1CC[N+](C)(C)C [Acetate, (2-{5-Cyano-2-[(R)-6-methoxycarbonyl-7-methyl-3-oxo-8-(3-trifluoromethyl-phenyl)-2,3,5,8-tetrahydro-[1,2,4]triazolo[4,3-a]pyrimidin-5-yl]-phenyl}-ethyl)-trimethyl-ammonium acetate salt]

increase in PenH area compared to vehicle ([4]; high dose (5.5 mg/kg)): ~20 fold | reduction in tidal volume, maximum vs vehicle ([4]; high dose (5.5 mg/kg), during inhalation): 38% | increase in PenH area compared to vehicle ([4]; low dose (0.55 mg/kg)): about 8 fold | increase in respiratory rate, maximum effect vs vehicle ([4]; low dose (0.55 mg/kg), during inhalation): 59% | % of Reduction of tidal volume at the highest tested dose ([4]; peak effect vs vehicle (lactose)): 38%
Structure (SMILES): COC(=O)C1=C(C)N(c2cccc(C(F)(F)F)c2)c2n[nH]c(=O)n2[C@@H]1c1ccc(C#N)cc1CC[N+](C)(C)C.[Br-] [Bromide, (2-{5-Cyano-2-[(R)-6-methoxycarbonyl-7-methyl-3-oxo-8-(3-trifluoromethyl-phenyl)-2,3,5,8-tetrahydro-[1,2,4]triazolo[4,3-a]pyrimidin-5-yl]-phenyl}-ethyl)-trimethyl-ammonium bromide salt]
